Measured values as given in article PMC10812521, “Boesenbergia rotunda and Its Pinostrobin for Atopic Dermatitis: Dual 5-Lipoxygenase and Cyclooxygenase-2 Inhibitor and Its Mechanistic Study through Steady-State Kinetics and Molecular Modeling” (Antioxidants, 2024).
In brackets after ≈: the same amount, converted by molar mass. Where two headings read alike, the source gives them in different places.

Columns and labels:
[1] = DPPH radical scavenging activity; conditions: pure compounds
Procedure: Each extract/EOs sample (20 µL) at various concentrations ([…]–5 mg/mL) was placed to a 96-well plate, followed by the addition of 120 µM DPPH solution in methanol (180 µL). The plate was subsequently incubated for 30 min in the dark at 37 °C. After that, the absorbance was measured by a microplate reader at 517 nm. Quercetin and solvent were used as a positive control and a control, respectively. The radical scavenging percentage inhibition against DPPH was calculated using Equation (4). (4) % Inhibition=Absorbance control−Absorbance sample/Absorbance control×100

Human recombinant COX-2 = target: T1, Human recombinant COX-2 (Homo sapiens, UniProt P35354); assay: Cyclooxygenase-2 inhibitory assay; format: biochemical
T1 construct: purchased Sigma Aldrich C0858; host or cells: insect cells
T1 sequence (P35354 18-604): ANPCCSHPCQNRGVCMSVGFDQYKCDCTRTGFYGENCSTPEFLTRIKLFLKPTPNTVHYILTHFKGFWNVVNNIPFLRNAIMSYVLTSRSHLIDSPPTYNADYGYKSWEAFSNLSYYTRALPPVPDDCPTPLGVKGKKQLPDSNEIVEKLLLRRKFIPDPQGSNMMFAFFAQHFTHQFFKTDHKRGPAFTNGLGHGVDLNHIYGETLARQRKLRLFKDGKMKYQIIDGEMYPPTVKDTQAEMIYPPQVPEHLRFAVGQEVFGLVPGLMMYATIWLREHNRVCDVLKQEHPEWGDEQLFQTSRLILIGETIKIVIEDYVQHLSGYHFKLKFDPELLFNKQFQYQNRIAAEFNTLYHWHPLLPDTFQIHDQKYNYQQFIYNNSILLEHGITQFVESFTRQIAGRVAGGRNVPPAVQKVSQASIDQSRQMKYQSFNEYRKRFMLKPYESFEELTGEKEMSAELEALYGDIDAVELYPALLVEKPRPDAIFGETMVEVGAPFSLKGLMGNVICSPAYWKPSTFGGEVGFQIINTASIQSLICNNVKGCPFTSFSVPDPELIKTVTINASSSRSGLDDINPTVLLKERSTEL
Procedure: This method was adapted and modified from Chew et al. (2018). Human recombinant COX-2 expressed in insect cells (Sigma Aldrich, C0858) was used in this experiment. Initially, a solution of 100 mM Tris HCl buffer, pH 8, was plated out in each well of a 96-well plate. Various concentrations of 40 µL samples (dissolved in polysorbate-20 and DMSO) were further added to the plate, followed by the addition of 40 µL of 40 U COX-2 enzyme (in ice-cool 100 mM Tris HCl buffer, pH 8). The mixture was incubated at 25 °C for 15 min under dark condition. Following the incubation, 10 µL of 20 mM N,N,N′,N′-tetramethyl-p-phenylenediamine (TMPD) and 4 µL of 10 µM of arachidonic acid were added to the mixture. Incubation of the mixture was further performed at a subdued light condition for 15 min. Prostaglandin G2 (PGG2) as an intermediate peroxide product was formed by the reaction and further oxidized the TMPD to a purple-colored TMPD complex. The absorbance was measured at 611 nm. The experiments were performed in duplicate wells. […] The percentage of inhibition was calculated by Equation (7), and the IC50 values were determined. (7) % Inhibition=Absorbance control−Absorbance sample/Absorbance control×100

[2] = system: keratinocyte (HaCaT) cells; set-up: method as in earlier work; conditions: cited from earlier work

For COc1cc(O)c2c(c1)O[C@H](c1ccccc1)CC2=O [Pinostrobin, pinostrobin], the “DPPH Radical; IC50” value [1] was >1000 µg/mL, the IC50 (Human recombinant COX-2; read-out: COX-2 IC50) was 286 µM and the IC50 (Human recombinant COX-2; read-out: COX-2 IC50 (µg/mL) (converted)) was 286 µM. The “IC50 keratinocyte (HaCaT) cells” value [2] was 30.76 µg/mL (≈ 114 µM) and the “full maximal inhibitory concentration (IC100) keratinocyte (HaCaT) cells” value [2] was > 250 µg/mL.
